Assay results as given in patent US20100094000A1, “PYRAZOLE COMPOUNDS” (TAKEDA PHARMACEUTICAL COMPANY LIMITED, priority 2008, published 2010).

How the values were obtained:
[1] = biological target: T1, Human Mineralocorticoid Receptor (hMR) (Homo sapiens, UniProt P08235); test: Inhibition of binding of hMR and [3H]-aldosterone (hMR lysate, charcoal separation); conditions: test compound at 10^−5 M; 10 nM [3H]-aldosterone; hMR lysate; 16 hr at 4° C.; read-out: Inhibition rate (at 10^−5 M)
T1 construct: To obtain the full-length hMR cDNA, pB-hMR (i) was digested with XhoI and PvuI; expressed in transfected cells; host or cells: FreeStyle 293 cells transiently transfected with pMCMVneo-hMR; supernatant of the freeze-thaw lysate (hMR lysate)
T1 sequence (P08235 1-984): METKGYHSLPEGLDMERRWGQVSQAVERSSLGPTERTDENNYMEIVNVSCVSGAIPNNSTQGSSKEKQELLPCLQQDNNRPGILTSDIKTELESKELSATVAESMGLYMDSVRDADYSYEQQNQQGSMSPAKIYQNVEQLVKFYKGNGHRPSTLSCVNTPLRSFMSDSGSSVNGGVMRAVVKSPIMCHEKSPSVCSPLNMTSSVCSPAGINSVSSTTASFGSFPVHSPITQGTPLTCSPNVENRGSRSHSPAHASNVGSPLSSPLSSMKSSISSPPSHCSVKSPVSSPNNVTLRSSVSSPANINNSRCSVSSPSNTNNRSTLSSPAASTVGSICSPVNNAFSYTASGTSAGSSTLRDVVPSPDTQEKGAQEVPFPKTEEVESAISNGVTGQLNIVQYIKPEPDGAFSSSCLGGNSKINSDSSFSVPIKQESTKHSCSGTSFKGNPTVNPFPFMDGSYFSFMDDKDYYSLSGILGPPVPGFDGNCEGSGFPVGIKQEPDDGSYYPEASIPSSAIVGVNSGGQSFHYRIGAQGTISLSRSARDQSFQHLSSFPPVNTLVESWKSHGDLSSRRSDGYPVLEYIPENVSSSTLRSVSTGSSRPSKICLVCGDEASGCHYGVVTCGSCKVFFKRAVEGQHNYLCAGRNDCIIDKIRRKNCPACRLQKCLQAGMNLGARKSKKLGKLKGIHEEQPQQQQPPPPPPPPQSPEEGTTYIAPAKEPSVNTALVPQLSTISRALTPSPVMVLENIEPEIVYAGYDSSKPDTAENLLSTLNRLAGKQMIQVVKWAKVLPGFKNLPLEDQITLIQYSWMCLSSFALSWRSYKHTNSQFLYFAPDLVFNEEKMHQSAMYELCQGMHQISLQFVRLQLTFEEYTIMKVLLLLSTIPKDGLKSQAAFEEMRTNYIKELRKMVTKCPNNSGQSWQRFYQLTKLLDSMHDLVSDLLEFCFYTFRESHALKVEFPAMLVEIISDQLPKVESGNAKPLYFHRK
Procedure: The following procedures described in this Example were carried out according to the methods described in Molecular Cloning—Cold Spring Harbor Laboratory (1989) or protocols specified by manufacturers.
(1) Cloning of Human Mineralocorticoid Receptor (hMR) cDNA
hMR cDNA was amplified by polymerase chain reaction (PCR) from human kidney cDNA library. Full-length cDNA was constructed from two fragments of hMR cDNA amplified separately. The primers were designed referring to the nucleotide sequence of hMR cDNA reported by Arriza et. al (Science 1987; 237: 268-275).
The PCR reactions were carried out using PyrobestR® DNA polymerase (Takara). The PCR products were electrophoresed in agarose gel, and 1.7 kb (region (i)) and 1.5 kb (region (ii)) DNA fragments were recovered. Each DNA fragment was inserted into pCR®4Blunt-TOPO® vector (Invitrogen). The resulting plasmids thus obtained were designated as pB-hMR (i) and pB-hMR (ii). To obtain the full-length hMR cDNA, pB-hMR (i) was digested with XhoI and PvuI, and pB-hMR (ii) was digested with PvuI and KpnI, respectively, and the two cDNA fragments were ligated into pBlueScript®IISK+ vector (Stratagene). The resulting plasmid thus obtained was designated as pB-hMR.
pMCMVneo (described in WO03/099793) was digested with XhoI and KpnI, and 5.6 kb fragment was ligated with 2.9 kb hMR cDNA fragment obtained by digestion of pB-hMR (described in above (1)) with XhoI and KpnI. The plasmid thus obtained was designated as pMCMVneo-hMR.
FreeStyle 293 cells were inoculated at 3×10^8 cells in 270 ml FreeStyle™ 293 Expression Medium (Invitrogen) in a 1000 ml Erlenmeyer flask. The cells were treated with 30 ml of the transfection mixture containing 300 μg of pMCMVneo-hMR obtained in above (2) and 400 μl of 293fectin™ Reagent (Invitrogen). The transfected cells were cultivated for 48 hr at 37° C. in 8% CO2 atmosphere at 125 rpm. The cultivated cells were centrifuged and washed with TEG buffer (10 mM Tris-HCl (pH 7.2), 50 mM EDTA, 10% glycerol), and resuspended in 10 ml TEGM buffer (10 mM Tris-HCl (pH 7.2), 1 mM EDTA, 10% glycerol, 1 mM β-mercaptoethanol, 10 mM sodium molybdate, 1 mM dithiothreitol, 2 tablets/100 ml of protease inhibitor cocktail tablets (Roche)). The cell suspension was frozen with liquid nitrogen and thawed on ice, and ultra-centrifuged at 186,000×g for 20 min at 4° C. The supernatant fraction including hMR (hMR lysate) was collected and stored at −80° C.
(4) Measurement of Inhibition Activity Against Binding of hMR and Aldosterone
[^3H]-Aldosterone (Amersham Biosciences) as ligand was added at 10 nM to the reaction mixture including test compound at various concentration and hMR lysate (lot.19: 0.675 mg/mL, lot.20: 0.675 mg/mL, lot.21: 0.765 mg/mL, lot.22: 0.900 mg/mi, lot.23: 0.750 mg/mL) obtained in above (3) and mixture was filled up to 50.5 μl with TEGM buffer. The reaction mixture was incubated for 16 hr at 4° C. and 35 μl of dextran/gelatin coated charcoal suspension (5% charcoal, 0.5% dextran T-70 (Amersham Biosciences), 0.1% gelatin (SIGMA), 10 mM Tris HCl (pH 7.2), 1 mM EDTA) was added thereto to separate bound and free radioactive aldosterone. The mixture containing charcoal was incubated for 10 min at 4° C. and centrifuged at 910×g for 10 min at 4° C.
Radioactivity in 30 μl of the supernatant was measured by TopCount™ (Packard).
For the determination of nonspecific binding, cold Aldosterone instead of drug was added to reaction mixture at 100 μM. Specific binding was determined by subtracting nonspecific binding from total binding.

Compound: Cc1nn(C)c(-c2ccc(F)cc2)c1-c1ccc2c(c1)NC(=O)CO2 [Example 1, 6-[5-(4-Fluorophenyl)-1,3-dimethyl-1H-pyrazol-4-yl]-2H-1,4-benzoxazin-3(4H)-one]
- inhibition at 10 µM [1]: ≥ 90%

Compound: Cc1nn(CCS(C)(=O)=O)c(-c2ccc(F)cc2)c1-c1ccc2c(c1)NC(=O)CO2 [Example 6, 6-{5-(4-Fluorophenyl)-3-methyl-1-[2-(methylsulfonyl)ethyl]-1H-pyrazol-4-yl}-2H-1,4-benzoxazin-3(4H)-one]
- inhibition at 10 µM [1]: ≥ 90%

Compound: Cc1nn(CCC(F)(F)CO)c(-c2ccc(F)cc2)c1-c1ccc2c(c1)NC(=O)CO2 [Example 25, 6-[1-(3,3-Difluoro-4-hydroxybutyl)-5-(4-fluorophenyl)-3-methyl-1H-pyrazol-4-yl]-2H-1,4-benzoxazin-3(4H)-one]
- inhibition at 10 µM [1]: ≥ 90%

Compound: CC(=O)OCC(F)(F)Cn1nc(C)c(-c2ccc3c(c2)NC(=O)CO3)c1-c1ccc(F)cc1 [Example 26, 2,2-Difluoro-3-[5-(4-fluorophenyl)-3-methyl-4-(3-oxo-3,4-dihydro-2H-1,4-benzoxazin-6-yl)-1H-pyrazol-1-yl]propyl acetate]
- inhibition at 10 µM [1]: ≥ 90%

Compound: Cc1nn(C)c(-c2ccc(F)cc2)c1-c1cc(Cl)c2c(c1)NC(=O)CO2 [Example 32, 8-Chloro-6-[5-(4-fluorophenyl)-1,3-dimethyl-1H-pyrazol-4-yl]-2H-1,4-benzoxazin-3(4H)-one]
- melting point: 260.2 to 260.5 °C

Compound: Cc1nn(CC(C)(F)F)c(-c2ccc(F)cc2)c1-c1ccc2c(c1)NC(=O)CO2 [Example 83, 6-[1-(2,2-Difluoropropyl)-5-(4-fluorophenyl)-3-methyl-1H-pyrazol-4-yl]-2H-1,4-benzoxazin-3(4H)-one]
- inhibition at 10 µM [1]: ≥ 90%

Compound: CC(=O)Cn1nc(C)c(-c2ccc3c(c2)NC(=O)CO3)c1-c1ccc(F)cc1 [Example 87, 6-[5-(4-Fuorophenyl)-3-methyl-1-(2-oxopropyl)-1H-pyrazol-4-yl]-2H-1,4-benzoxazin-3(4H)-one]
- inhibition at 10 µM [1]: ≥ 90%

Compound: Cc1nn(CC(F)(F)CO)c(-c2ccc(F)cc2)c1-c1ccc2c(c1)NC(=O)CO2 [Example 109, 6-[1-(2,2-Difluoro-3-hydroxypropyl)-5-(4-fluorophenyl)-3-methyl-1H-pyrazol-4-yl]-2H-1,4-benzoxazin-3(4H)-one]
- inhibition at 10 µM [1]: ≥ 90%

Compound: Cc1nn(CC(C)(C)CO)c(-c2ccc(F)cc2)c1-c1ccc2c(c1)NC(=O)CO2 [Example 125, 6-[5-(4-Fluorophenyl)-1-(3-hydroxy-2,2-dimethylpropyl)-3-methyl-1H-pyrazol-4-yl]-2H-1,4-benzoxazin-3(4H)-one]
- inhibition at 10 µM [1]: ≥ 90%

Compound: Cc1nn(CC(F)(F)CO)c(-c2ccc(F)cc2)c1-c1ccc2c(c1C)NC(=O)CO2 [Example 128, 6-[1-(2,2-Difluoro-3-hydroxypropyl)-5-(4-fluorophenyl)-3-methyl-1H-pyrazol-4-yl]-5-methyl-2H-1,4-benzoxazin-3(4H)-one]
- inhibition at 10 µM [1]: ≥ 90%

Compound: Cc1nn(Cc2cccnc2)c(-c2ccc(F)cc2)c1-c1ccc2c(c1)NC(=O)CO2 [Example 135, 6-[5-(4-Fluorophenyl)-3-methyl-1-(pyridin-3-ylmethyl)-1H-pyrazol-4-yl]-2H-1,4-benzoxazin-3(4H)-one]
- inhibition at 10 µM [1]: ≥ 90%

Compound: Cc1nn(CC2CCOC2)c(-c2ccc(F)cc2)c1-c1ccc2c(c1)NC(=O)CO2 (stereo not drawn) [Example 146, 6-[5-(4-Fluorophenyl)-3-methyl-1-(tetrahydrofuran-3-ylmethyl)-1H-pyrazol-4-yl]-2H-1,4-benzoxazin-3(4H)-one]
- inhibition at 10 µM [1]: ≥ 90%

Compound: Cc1nn(C[C@@H]2CCC(=O)O2)c(-c2ccc(F)cc2)c1-c1ccc2c(c1)NC(=O)CO2 [Example 159, 6-[5-(4-Fluorophenyl)-3-methyl-1-{[(2S)-5-oxotetrahydrofuran-2-yl]methyl}-1H-pyrazol-4-yl]-2H-1,4-benzoxazin-3(4H)-one]
- inhibition at 10 µM [1]: ≥ 90%

Compound: [2H]C1([2H])Oc2ccc(-c3c(C)nn(CC(C)(F)F)c3-c3ccc(F)cc3)cc2NC1=O [Example 174]
- melting point: 205 to 206 °C

Compound: CCOC(=O)CCC(=O)OCC(F)(F)Cn1nc(C)c(-c2ccc3c(c2)NC(=O)CO3)c1-c1ccc(F)cc1 [Example 185, 2,2-Difluoro-3-[5-(4-fluorophenyl)-3-methyl-4-(3-oxo-3,4-dihydro-2H-1,4-benzoxazin-6-yl)-1H-pyrazol-1-yl]propyl ethyl butanedioate]
- melting point: 100 °C

Compound: CCCCCCCCCCCCCCCC(=O)OCC(F)(F)Cn1nc(C)c(-c2ccc3c(c2)NC(=O)CO3)c1-c1ccc(F)cc1 [Example 186, 2,2-Difluoro-3-[5-(4-fluorophenyl)-3-methyl-4-(3-oxo-3,4-dihydro-2H-1,4-benzoxazin-6-yl)-1H-pyrazol-1-yl]propyl hexadecanoate]
- melting point: 106 °C

Compound: CCOC(=O)OCC(F)(F)Cn1nc(C)c(-c2ccc3c(c2)NC(=O)CO3)c1-c1ccc(F)cc1 [Example 187, 2,2-Difluoro-3-[5-(4-fluorophenyl)-3-methyl-4-(3-oxo-3,4-dihydro-2H-1,4-benzoxazin-6-yl)-1H-pyrazol-1-yl]propyl ethyl carbonate]
- melting point: 142 °C

Compound: CNC(=O)OCC(F)(F)Cn1nc(C)c(-c2ccc3c(c2)NC(=O)CO3)c1-c1ccc(F)cc1 [Example 198, 2,2-Difluoro-3-[5-(4-fluorophenyl)-3-methyl-4-(3-oxo-3,4-dihydro-2H-1,4-benzoxazin-6-yl)-1H-pyrazol-1-yl]propyl methylcarbamate]
- melting point: 112 °C
